{"source": "patent US20190375786A1", "about": "“STABLE PEPTIDES AND METHODS OF USE THEREOF” (Fred Hutchinson Cancer Research Center, priority 2016, published 2019)", "key": {"[1]": {"test_system": "TEAD protein", "assay": "Binding of surface-displayed (SDGF) peptide to biotinylated target protein after reducing agent, flow cytometry", "format": "cell-based", "conditions": "HEK-293 cells displaying peptide, 20 nM biotinylated target protein", "method": "Designed or engineered peptides of this disclosure were also tested to evaluate if the peptides' binding activity to their target protein (e.g., TEAD protein) was affected by exposure to reducing conditions. HEK-293T suspension cells were transfected with a surface display GFP FasL(SDGF) vector comprising SEQ ID NO: 39 (SDGF-SEQ ID NO: 39) or SDGF vector comprising SEQ ID NO: 43 (SDGF-SEQ ID NO: 43) construct. Cultures were grown for two days, followed by incubation in 10 mM GSH or 10 mM DTT. Finally, cells were stained with biotinylated-target protein to evaluate the binding activity of a peptide to the target protein. FIG. 15 illustrates the stability of peptides of SEQ ID NO: 39 and SEQ ID NO: 43 after exposure to a reducing agent. Each peptide was expressed on a cell surface and tested for binding to a target protein after cells expressing SDGF-SEQ ID NO: 43 or SEQ ID NO: 39 were exposed to a reducing agent. FIG. 15A illustrates a flow cytometry plot showing binding of HEK-293 suspension cells transfected with SDGF-SEQ ID NO: 39 (GFP) incubated for 5 minutes in PBS, 10 mM DTT, or 10 mM reduced glutathione (GSH) before staining with 20 nM biotinylated target protein and 20 nM AF647-streptavidin. FIG. 15B illustrates a flow cytometry plot showing binding of HEK-293 suspension cells transfected with SDGF-SEQ ID NO: 43 (GFP) incubated for 5 minutes in PBS, 10 mM DTT, or 10 mM reduced glutathione (GSH) before staining with 20 nM biotinylated target protein and 20 nM AF647-streptavidin. FIG. 15C illustrates quantification of the AF647 mean fluorescence intensity (MFI) of cells falling within the “slice” gate shown in FIG. 15A and FIG. 15B. […] In other words, peptides of SEQ ID NO: 39 and SEQ ID NO: 43 were resistant to reduction by GSH."}, "[2]": {"assay": "Resistance to reduction by DTT, RP-HPLC", "format": "physicochemical", "conditions": "10 mM DTT; HPLC vs non-reduced peptide", "outline": "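Peptide (12.5 μg from a 2 mg/ml stock, or 0.015 mM final in PBS) was held 30 min at room temperature with or without 10 mM DTT. Reduced and non-reduced forms were compared by C-18 RP-HPLC using a 5–45% acetonitrile/0.1% TFA gradient over 10 min, with detection at 214 and 280 nm.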"}}, "data": [{"sequence": "GSPDEYIERAKECCKKQDIQCCLRIFDESKDPNVMLICLFCW [SEQ ID NO: 43]", "values": [{"measurement": "binding to target protein after DTT treatment", "setting": "[1]; 5 minutes in 10 mM DTT", "value": "no loss in binding"}, {"measurement": "binding to target protein after GSH treatment", "setting": "[1]; 5 minutes in 10 mM GSH", "value": "no loss in binding"}, {"measurement": "resistance to reduction by DTT (in words)", "setting": "[2]", "value": "partially resistant"}]}]}
